The target in test [1] is T1, Tdp1 (Homo sapiens, UniProt Q9NUW8). In words: Real-time detection of Tdp1 activity (oligonucleotide biosensor, FAM/BHQ1). The class given is biochemical. Also noted: key to Eut/Dis: The stereoisomer with the greater inhibitory activity is termed the eutomer (Eut); that with the lower activity, the distomer (Dis). The settings on record: for IC50: 1.5 nM Tdp1, 50 nM biosensor, 26 °C, three independent experiments; for ER (eudismic ratio): IC50 (Eutomer)/IC50 (Distomer); for ER (eudismic ratio) / EI (eudismic index): per stereoisomer pair; for Eut/Dis: eutomer or distomer within the stereoisomer pair; for EI (eudismic index): −logER. The method, then:
The measurement of Tdp1 inhibition was performed using a real-time oligonucleotide biosensor based on the capability of Tdp1 to remove fluorophore quenchers from the 3′-end of DNA [31]. The single-stranded Tdp1 substrate was a 16-mer oligonucleotide containing a 5′-FAM (6-carboxyfluorescein) fluorophore donor and a 3′-BHQ1 quencher (black hole quencher 1). When a quencher is removed by Tdp1, FAM fluorescence flares up and can be detected by a fluorimeter. In the presence of an inhibitor, fluorescence intensity decreases. The obtained Tdp1 activity versus inhibitor concentration curves were used to calculate IC50 values. We also studied other structurally related compounds, such as optically active benzoylated arabinofuranose and ribofuranose to ascertain the influence of a heterocyclic base on biological activity (Table 1).
Real-time detection of Tdp1 activity was reported in our previous work. This approach involves measuring the fluorescence intensity during the reaction of quencher removal from a fluorophore-quencher coupled to a DNA-oligonucleotide catalyzed by Tdp1 in the presence of inhibitor (the control samples contained 1% DMSO). Reaction mixtures ([…]) contained Tdp1 buffer (50mM Tris-HCl, pH 8.0, 50mM NaCl, 7mM β-mercaptoethanol), 50 nM biosensor, testable inhibitor, and purified Tdp1 (1.5 nM). The biosensor was a single-stranded oligonucleotide (5′-[FAM] AAC GTC AGGGTC TTC C [BHQ]-3′) containing a fluorophore at the 5′-end (5,6-FAM) and black hole quencher 1 (BHQ) at the 3′-end that was synthesized in the Laboratory of nucleic acid chemistry at the Institute of Chemical Biology and Fundamental Medicine, Novosibirsk, Russia. The reactions were incubated at a constant temperature of 26 °C in a POLARstar OPTIMA fluorimeter (BMG LABTECH, GmbH, Soest, Germany) set to measure fluorescence every 55 s (Ex485/Em520 nm) during the linear phase (from 0 to 8 min). The values for half maximal inhibitory concentration (IC50) were determined using a six-point concentration response curve in three independent experiments and calculated using MARS Data Analysis 2.0 (BMG LABTECH, Soest, Germany).

The test system of test [2] is recombinant human Tdp1. In words: Steady-state kinetic analysis of Tdp1 enzymatic reaction. The class given is biochemical. The following applies: from dependence of Vmax and KM on inhibitor concentration. The method, then:
To confirm the interaction model obtained by molecular docking, the type of inhibition by compounds 3D, 3L, 7R, and 7S was determined by a steady-state kinetic assay. During the experiment, dependence curves of the enzymatic reaction rate (V) on substrate concentration (S) in the presence of different concentrations of the inhibitors were obtained (Figures S36–S39 in Supplementary Materials). The apparent Michaelis constant (KM) and the maximum reaction rate (Vmax) were calculated according to the Michaelis–Menten equation. Conclusions about the type of inhibition were made from the characteristics of the dependence of Vmax and KM on the concentration of the inhibitor.
To determine the apparent maximum rate of enzymatic reaction (Vmax), Michaelis constant (KM), and possible inhibition mechanism, steady-state kinetic experiments were carried out at five fixed concentrations for the substrate with various inhibitor concentrations. The standard reaction mixtures (200 μL) contained 50 nM, 100 nM, 200 nM, 500 nM, or 1000 nM substrate, testable inhibitor, 1.5 nM recombinant human Tdp1, and reaction buffer components (50 mM Tris-HCl, pH 8.0, 50 mM NaCl, 7 mM β-mercaptoethanol). After the addition of the enzyme, the reaction mixtures were incubated at a constant temperature of 26 °C and measured in a POLARstar OPTIMA fluorimeter (BMG LABTECH, GmbH) set to measure fluorescence every 55 s (Ex485/Em520 nm) during the linear phase (0 to 8 min). The initial data (kinetic curves) were obtained in three independent experiments and statistically processed with OriginPro 8.6.0 software.

Test [3] deals with T1, Tdp1. In words: Fluorescence anisotropy assay. The format is binding. The following applies: FAM-labeled DNA with Tdp1, increasing inhibitor concentration. The text has this:
To clarify the mechanism of action of this compound, the change in the fluorescence anisotropy during the Tdp1 catalytic reaction was studied. This method is based on the ability of fluorescent molecules to be excited by plane-polarized light when their dipole moment is parallel to the plane of polarization. If such a molecule is unable to rotate in space, then the emitted light will be polarized following excitation. Conversely, if the molecule can rotate, then the emitted light is “depolarized”. The minimum anisotropy value corresponds to FAM-labeled DNA (Figure S40, gray graph). When Tdp1 was added, the anisotropy increased due to the binding of the DNA by the enzyme, which prevents its free rotation (Figure S40, red graph).
This means that the inhibitor can bind to the active site of Tdp1 instead of the DNA substrate, thereby reducing the activity of the enzyme by competitive inhibition. This is consistent with the data obtained in the kinetic studies. […] Thus, a competitive component is present when Tdp1 is inhibited by compound 7R; however, this process is more complicated and requires further study with other methods.

This is an account of results in paper PMC9024977, “In Vitro and In Silico Studies of Human Tyrosyl-DNA Phosphodiesterase 1 (Tdp1) Inhibition by Stereoisomeric Forms of Lipophilic Nucleosides: The Role of Carbohydrate Stereochemistry in Ligand-Enzyme Interactions” (Molecules, 2022).

T1 sequence (Q9NUW8 whole entry): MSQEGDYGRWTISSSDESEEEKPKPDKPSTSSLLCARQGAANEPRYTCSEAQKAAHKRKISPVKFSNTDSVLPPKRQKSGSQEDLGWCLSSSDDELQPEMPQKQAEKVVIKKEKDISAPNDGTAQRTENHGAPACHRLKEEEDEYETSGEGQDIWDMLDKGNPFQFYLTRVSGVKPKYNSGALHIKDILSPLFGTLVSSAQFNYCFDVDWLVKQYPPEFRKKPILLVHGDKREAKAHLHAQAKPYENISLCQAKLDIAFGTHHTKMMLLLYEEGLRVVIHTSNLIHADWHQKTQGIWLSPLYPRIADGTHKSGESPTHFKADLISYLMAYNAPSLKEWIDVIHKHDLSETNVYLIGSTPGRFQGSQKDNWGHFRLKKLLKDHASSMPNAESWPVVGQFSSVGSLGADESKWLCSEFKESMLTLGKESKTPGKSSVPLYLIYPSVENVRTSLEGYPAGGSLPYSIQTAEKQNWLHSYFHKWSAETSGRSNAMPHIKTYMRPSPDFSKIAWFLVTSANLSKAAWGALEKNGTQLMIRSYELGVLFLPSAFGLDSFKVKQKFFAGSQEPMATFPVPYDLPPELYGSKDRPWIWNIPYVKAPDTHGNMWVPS

As usually defined, the IC50 is the concentration that gives 50% inhibition. Take `CO[C@H]1O[C@H](COC(=O)c2ccccc2)[C@@H](OC(=O)c2ccccc2)[C@@H]1OC(=O)c1ccccc1` [Compound 1D, 1-O-methyl-2,3,5-tri-O-benzoyl-α-D-arabinofuranose]: in test [1], inhibition was half-maximal at 2.3 ± 0.6 µM (IC50), the “ER (eudismic ratio)” value turned out to be 0.343, the Eut/Dis entry is recorded as “Eut” and the “EI (eudismic index)” value was 0.465.
For `CO[C@@H]1O[C@@H](COC(=O)c2ccccc2)[C@H](OC(=O)c2ccccc2)[C@H]1OC(=O)c1ccccc1` [Compound 1L, 1-O-methyl-2,3,5-tri-O-benzoyl-α-L-arabinofuranose], in test [1], the IC50 came to 6.7 ± 1.9 µM, the “ER (eudismic ratio)” value is 0.343, the Eut/Dis entry is given as “Dis” and the “EI (eudismic index)” value came to 0.465.
On to `CC(=O)O[C@@H]1O[C@H](COC(=O)c2ccccc2)[C@@H](OC(=O)c2ccccc2)[C@H]1OC(=O)c1ccccc1` [Compound 2D, 1-O-Acetyl-2,3,5-tri-O-benzoyl-β-D-ribofuranose], for which, in test [1], the “ER (eudismic ratio)” value amounted to 0.808, the Eut/Dis result is on record as “Eut” and the “EI (eudismic index)” value worked out at 0.09.
As for `CC(=O)O[C@H]1O[C@@H](COC(=O)c2ccccc2)[C@H](OC(=O)c2ccccc2)[C@@H]1OC(=O)c1ccccc1` [Compound 2L], in test [1], it took 5.2 ± 0.2 µM to reach half-maximal inhibition (IC50), the “ER (eudismic ratio)” value is 0.808, the Eut/Dis result is reported as “Dis” and the “EI (eudismic index)” value was 0.09.
For the compound `O=C(OC[C@H]1O[C@@H](n2ccc(=O)[nH]c2=O)[C@H](OC(=O)c2ccccc2)[C@@H]1OC(=O)c1ccccc1)c1ccccc1` [Compound 3D, 2′,3′,5′-tri-O-benzoyl-D-uridine], the type of inhibition result in test [2] was “uncompetitive”. In test [1], it took 3.8 ± 0.4 µM to reach half-maximal inhibition (IC50), the “ER (eudismic ratio)” value came out at 0.745, the Eut/Dis result is “Eut” and the “EI (eudismic index)” value was found to be 0.128.
With `O=C(OC[C@@H]1O[C@H](n2ccc(=O)[nH]c2=O)[C@@H](OC(=O)c2ccccc2)[C@H]1OC(=O)c1ccccc1)c1ccccc1` [Compound 3L, 2′,3′,5′-tri-O-benzoyl-L-uridine], in test [2], the type of inhibition entry was “uncompetitive”. Besides, in test [1], the IC50 came out at 5.1 ± 0.1 µM, the “ER (eudismic ratio)” value worked out at 0.745, the Eut/Dis result is “Dis” and the “EI (eudismic index)” value came out at 0.128.
Regarding `Cc1cn([C@@H]2O[C@H](COC(=O)c3ccccc3)[C@@H](OC(=O)c3ccccc3)[C@H]2OC(=O)c2ccccc2)c(=O)[nH]c1=O` [Compound 4D, 1-(2,3,5-Tri-O-benzoyl-β-D-ribofuranosyl)thymine], in test [1], the “ER (eudismic ratio)” value was 0.108, the Eut/Dis entry is reported as “Eut” and the “EI (eudismic index)” value is 0.967.
For the compound `Cc1cn([C@H]2O[C@@H](COC(=O)c3ccccc3)[C@H](OC(=O)c3ccccc3)[C@@H]2OC(=O)c2ccccc2)c(=O)[nH]c1=O` [Compound 4L, 2′,3′,5′-tri-O-benzoyl-L-ribothymidine], in test [1], half-maximal inhibition (IC50) required 25 ± 1 µM, the “ER (eudismic ratio)” value is 0.108, the Eut/Dis result was “Dis” and the “EI (eudismic index)” value is reported as 0.967.
Take `C[C@@H](OC(=O)c1ccccc1)[C@H]1O[C@@H](n2c(=O)cc[nH]c2=O)[C@H](OC(=O)c2ccccc2)[C@@H]1OC(=O)c1ccccc1` [Compound 5R, 3-[5(R)-C-methyl-2,3,5-O-tribenzoyl-β-D-ribofuranosyl]uracil]: in test [1], half-maximal inhibition (IC50) was put at 3.1 ± 0.2 µM, the “ER (eudismic ratio)” value was found to be 0.871, the Eut/Dis result is “Dis” and the “EI (eudismic index)” value is listed as 0.06.
Take `C[C@H](OC(=O)c1ccccc1)[C@H]1O[C@@H](n2c(=O)cc[nH]c2=O)[C@H](OC(=O)c2ccccc2)[C@@H]1OC(=O)c1ccccc1` [Compound 5S, 3-[5(S)-C-methyl-2,3,5-tri-O-benzoyl-β-D-ribofuranosyl]uracil]: in test [1], the IC50 amounted to 2.7 ± 0.2 µM, the “ER (eudismic ratio)” value was 0.871, the Eut/Dis entry is recorded as “Eut” and the “EI (eudismic index)” value is 0.06.
Regarding `C[C@@H](OC(=O)c1ccccc1)[C@H]1O[C@@H](n2ccc(N)nc2=O)[C@H](OC(=O)c2ccccc2)[C@@H]1OC(=O)c1ccccc1` [Compound 6R, 1-[5(R)-C-methyl-2,3,5-tri-O-benzoyl-β-D-ribofuranosyl]cytosine], in test [1], half-maximal inhibition (IC50) required 5.8 ± 0.5 µM, the “ER (eudismic ratio)” value is reported as 0.896, the Eut/Dis entry is listed as “Dis” and the “EI (eudismic index)” value turned out to be 0.048.
On to `C[C@H](OC(=O)c1ccccc1)[C@H]1O[C@@H](n2ccc(N)nc2=O)[C@H](OC(=O)c2ccccc2)[C@@H]1OC(=O)c1ccccc1` [Compound 6S, 1-[5(S)-C-methyl-2,3,5-tri-O-benzoyl-β-D-ribofuranosyl]cytosine], for which, in test [1], the IC50 came out at 5.2 ± 0.8 µM, the “ER (eudismic ratio)” value was 0.896, the Eut/Dis entry was “Eut” and the “EI (eudismic index)” value was 0.048.
As to `C[C@@H](OC(=O)c1ccccc1)[C@H]1O[C@@H](n2cnc3c(NC(=O)c4ccccc4)ncnc32)[C@H](OC(=O)c2ccccc2)[C@@H]1OC(=O)c1ccccc1` [Compound 7R, 5′(R)-C-methyl-2′,3′,5′-tri-O-benzoyl-N^6-benzoyladenosine], in test [2], the type of inhibition entry is “uncompetitive at low inhibitor concentrations and mixed at high”. In test [1], half-maximal inhibition (IC50) was put at 4.4 ± 0.8 µM, the “ER (eudismic ratio)” value came out at 0.956, the Eut/Dis entry is on record as “Eut” and the “EI (eudismic index)” value is 0.0193.
For `C[C@H](OC(=O)c1ccccc1)[C@H]1O[C@@H](n2cnc3c(NC(=O)c4ccccc4)ncnc32)[C@H](OC(=O)c2ccccc2)[C@@H]1OC(=O)c1ccccc1` [Compound 7S, 5′(S)-C-methyl-2′,3′,5′-tri-O-benzoyl-N^6-benzoyladenosine], the type of inhibition result in test [2] is recorded as “competitive”. The “change in fluorescence anisotropy” value in test [3] is listed as “decreased with an increasing concentration of the inhibitor”. In addition, in test [1], the half-inhibitory concentration (IC50) was found to be 4.6 ± 0.9 µM, the “ER (eudismic ratio)” value worked out at 0.956, the Eut/Dis entry is listed as “Dis” and the “EI (eudismic index)” value is listed as 0.0193.
In turn, `O=c1ccn([C@@H]2O[C@H](CO)[C@@H](O)[C@H]2O)c(=O)[nH]1` [Compound 8D] showed an IC50 in test [1] of over 50 µM.
Take `O=c1ccn([C@H]2O[C@@H](CO)[C@H](O)[C@@H]2O)c(=O)[nH]1` [Compound 8L]: the half-maximal inhibitory concentration (IC50) in test [1] was over 50 µM.
